Laboratory results from patent US6071947A, “Indolyl-pyrrolydenemethylpyrrole derivatives and process for their preparation” (Pharmacia & Upjohn S.p.A., priority 1997, dated 2000).
Structures can show the parent of a compound that is named as a salt. Where two headings read alike, the source gives them in different places.

Tests used:
[1] = system: Delayed-Type Hypersensitivity; experiment: Test n° 4: in vivo DTH (Delayed-Type Hypersensitivity) assay, SRBC-induced footpad thickness increase; parameters: species or system female C57 B1/6 mice; details: Mus musculus, read-out: DTH ED30 os
Experimental: Comparative in Vivo Activity Evaluation by DTH Assay
The immunosuppressive activity of the compounds of the invention was evaluated in vivo by DTH (Delayed-Type Hypersensitivity) assay. According to the test, sheep red blood cells (SRBC) (1×10^5 cells) suspended in 500 mcL saline, were injected i.v. into the tail vein of female C57 B1/6 mice (8-9 week old). Five days later 1×10^8 SRBC suspended in 50 mcL saline were injected into the left hind footpad. The increase in footpad thickness was measured with a dial micrometer 24 h after challenge. The test compounds were given daily for six days at different doses starting on the day of priming.

[2] = Test n° 5: in vivo bioavailability evaluation after oral administration; details: rat, 10 mg/kg
Experimental: In Vivo Bioavailability Evaluation
Aim of the study is to determine the pharmacokinetics and the oral bioavailability of the instant compounds in rats.
Species/strain/sex: rat/Lewis/male
No. formulations: 1 oral; 1 intravenous
No. animals/formulation: 3+2 controls (+an ulterior rat treated with the iv formulation); total 9
Dosages: iv: 1 mg salt/kg; oral: 10 mg salt/kg
Vehicles: iv: a solution at the conc. of 5 mg/ml in PEG 400/Tween 80 (6:1 v:v) was prepared, then diluted with dextrose at the final concentration of 0.5 mg/ml; oral: a solution at the concentration of 5 mg/ml in Cremophor ELP/EtOH abs (6.5:3.5 v:v) was prepared, then diluted with saline at the final concentration of 1 mg/ml
Experimental: Three cannulated rats/formulation were treated. One rat/formulation was only treated with the vehicle, as basal sample. The intravenous administration was given into the caudal vein as bolus; the oral administration by gastric gavage as solution. […] Plasma was immediately obtained by centrifugation (10000 rpm for 3 min) and stored in labelled tubes at -30° C. till analysis.
Analytical assay: the extraction of the compounds was performed by protein precipitation by adding 100 mcl of acetonitrile to 25 mcl of plasma. The concentrations of the compounds (as free bases) in plasma were determined by LC-MS method. Column: APEX CN RP 5 mc, 10×4 mm (Jones chromatography); mobil phase: 70% acetonitrile/30% 1 mM ammonium formate +0.01% triethylamine adjusted to pH 2.0 with formic acid; flow rate: 1 ml/min; injection volume: 10 mcL; oven temperature: 45° C.; MS detection by APCI using MRM positive ion; MRM transition: 330 m/z>239 m/z, retention time: 1.4 min; LLOQ: 5.03 ng/ml; ULOQ: 10060 ng/ml.

[3] = system: Th2 murine cells D10-G4.1 (ATCC TIB 224); experiment: Inhibition of IL-2 proliferation induced activity (D10 cells, 3H-TdR uptake); type: cell-based
Experimental: Inhibition of IL-2 Proliferation Induced Activity
The Th2 murine cells D10-G4.1 (ATCC TIB 224) are IL-2 dependent for their growth. They are cultured in complete RPMI 1640 medium enriched with rhIL-2 (6 ng/ml) and ConA (6 ng/ml).
For testing the inhibitory effects of the compounds of the invention on IL-2 activity, D 10 cells are washed twice with complete medium, resuspended at 10^5 cells/ml in the same medium and triplicately distributed (10^4 cells/well) in flat bottomed 96 well plates. […] and […] at different concentrations are simultaneously added to the cells. The cultures are then incubated at 37° C. in a humidified 5% CO2 incubator for 48 h, the last 18 h in the presence of 0.2 μCi of ^3 H-TdR.
Uptake of 3H-TdR in the cells (cpm) is taken as a measure of cell proliferation.

[4] = oral (os), daily for six days, dose able to reduce by 30% the footpad thickness increase compared to controls, 24 h after challenge, mice

Compound | ED30 [1, 4] [mg/kg] | bioavailability ([2]; plasma) [%] | ED30 ([1]; 24 h) [mg/kg] | bioavailability ([2]; in vivo) [%] | 3HTdR uptake ([3]; 10 ng/ml, mean cpm from triplicate wells (SE), vehicle 61231 (1193)) | 3HTdR uptake ([3]; 30 ng/ml, mean cpm from triplicate wells (SE), vehicle 61231 (1193)) | 3HTdR uptake ([3]; 0.1 ug/mL) | inhibition at 0.01 µg/mL ([3]; Mus musculus, 10 ng/ml, 48 h, read-out: % inhibition vs vehicle) [%] | inhibition at 0.03 µg/mL ([3]; Mus musculus, 30 ng/ml, 48 h, read-out: % inhibition vs vehicle) [%] | inhibition at 0.1 µg/mL ([3]; Mus musculus, 100 ng/ml, 48 h, read-out: % inhibition vs vehicle) [%]
CC1=NC(=Cc2[nH]c(-c3cc4ccccc4[nH]3)cc2OCc2ccccc2)C=C1 [PNU 190537, 2-(1H-indol-2-yl)-4-benzyloxy-5-[(5-methyl-2H-pyrrol-2-ylidene)methyl]-1H-pyrrole, hydrochloride] | 11.9 | 20 | – | – | – | – | – | – | – | –
COc1cc(-c2cc3ccccc3[nH]2)[nH]c1C=C1C=CC(C)=N1.Cl [PNU 190364, 2-(1H-indol-2-yl)-4-methoxy-5-[(5-methyl-2H-pyrrol-2-ylidene)methyl]-1H-pyrrole, hydrochloride] | 6.6 | 82 | – | – | – | – | – | – | – | –
CCCCCCCCCCCC1=NC(=Cc2[nH]c(-c3cc4ccccc4[nH]3)cc2OC)C=C1.Cl [PNU 166823, 2-(1H-indol-2-yl)-4-methoxy-5-[(5-undecyl-2H-pyrrol-2-ylidene)methyl]-1H-pyrrole, hydrochloride] | – | – | 8.8 | 5 | – | – | – | – | – | –
CCCCCC1=NC(=Cc2[nH]c(-c3cc4ccccc4[nH]3)cc2OC)C=C1.Cl [PNU 190192, 2-(1H-indol-2-yl)-4-methoxy-5-[(5-pentyl-2H-pyrrol-2-ylidene)methyl]-1H-pyrrole, hydrochloride] | 7.1 | 38 | – | – | 57325 (1280) cpm | 29681 (1528) cpm | 1388 (62) cpm | 6 | 52 | 98
